Assay results as given in ChEMBL document CHEMBL1152055, “Synthesis and biological evaluation of four stereoisomers of PDMP-analogue, N-(2-decylamino-3-hydroxy-3-phenylprop-1-yl)--valienamine, and related compounds” (Bioorg Med Chem Lett, 1997).

Key:
[1] = target: T1, Lysosomal acid glucosylceramidase (Mus musculus, UniProt P17439); test: Compound tested for inhibitory activity against beta-glucocerebrosidase enzyme at a concentration of 1.0*10e-4M; no inhibitory activity
T1 sequence (P17439 whole entry): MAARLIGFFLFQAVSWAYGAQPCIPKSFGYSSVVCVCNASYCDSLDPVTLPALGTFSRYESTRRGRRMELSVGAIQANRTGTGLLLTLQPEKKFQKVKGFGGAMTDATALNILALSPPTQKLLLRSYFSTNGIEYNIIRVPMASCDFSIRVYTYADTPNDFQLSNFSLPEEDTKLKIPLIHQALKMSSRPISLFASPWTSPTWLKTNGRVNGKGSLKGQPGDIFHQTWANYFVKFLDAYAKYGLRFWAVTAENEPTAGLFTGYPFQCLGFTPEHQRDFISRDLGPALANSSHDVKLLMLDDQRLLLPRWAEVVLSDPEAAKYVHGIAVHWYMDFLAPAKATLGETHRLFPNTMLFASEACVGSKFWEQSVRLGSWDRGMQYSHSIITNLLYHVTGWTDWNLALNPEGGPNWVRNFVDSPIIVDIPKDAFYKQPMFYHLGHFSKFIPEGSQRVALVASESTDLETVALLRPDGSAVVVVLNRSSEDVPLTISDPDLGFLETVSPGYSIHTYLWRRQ

[2] = target: T2, Ceramide glucosyltransferase (Homo sapiens, UniProt Q16739); test: Compound tested for inhibitory activity against glucosylceramide synthase enzyme at a concentration of 1.0*10e-4M; no inhibitory activity
T2 sequence (Q16739 whole entry): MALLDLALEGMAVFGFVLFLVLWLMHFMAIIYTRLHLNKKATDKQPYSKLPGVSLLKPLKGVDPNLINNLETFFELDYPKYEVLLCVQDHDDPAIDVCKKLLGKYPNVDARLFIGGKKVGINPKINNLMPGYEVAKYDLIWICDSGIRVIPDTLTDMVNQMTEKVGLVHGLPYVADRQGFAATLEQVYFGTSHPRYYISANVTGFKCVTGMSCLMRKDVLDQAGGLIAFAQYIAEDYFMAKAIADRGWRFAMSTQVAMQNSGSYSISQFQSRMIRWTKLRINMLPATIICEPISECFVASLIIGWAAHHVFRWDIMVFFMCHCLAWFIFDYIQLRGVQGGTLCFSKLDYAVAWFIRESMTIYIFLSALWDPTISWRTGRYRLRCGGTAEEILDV

[3] = target: T1, Lysosomal acid glucosylceramidase; test: Compound tested for inhibitory activity against beta-glucocerebrosidase enzyme
[4] = target: T2, Ceramide glucosyltransferase; test: Compound tested for inhibitory activity against glucosylceramide synthase enzyme

CCCCCCCCCC(=O)N[C@H](CN[C@H]1C=C(CO)[C@@H](O)[C@H](O)[C@@H]1O)[C@H](O)c1ccccc1
IC50 [1]: No inhibition
IC50 [2]: No inhibition

CCCCCCCCCC(=O)N[C@@H](CN[C@@H]1C=C(CO)[C@@H](O)[C@H](O)[C@@H]1O)[C@@H](O)c1ccccc1
IC50 [2]: No inhibition
IC50 [3]: 0.3 µM

CCCCCCCCCC(=O)N[C@H](CN[C@@H]1C=C(CO)[C@@H](O)[C@H](O)[C@@H]1O)[C@@H](O)c1ccccc1
IC50 [2]: No inhibition
IC50 [3]: 0.7 µM

CCCCCCCCCC(=O)N[C@H](CNC1CC(CO)C(O)C(O)C1O)[C@@H](O)c1ccccc1 (stereo not given in full)
IC50 [2]: No inhibition
IC50 [3]: 7 µM

CCCCCCCCCC(=O)N[C@@H](CNC1CC(CO)C(O)C(O)C1O)[C@@H](O)c1ccccc1 (stereo not given in full)
IC50 [2]: No inhibition
IC50 [3]: 20 µM

CCCCCCCCCC(=O)N[C@H](CN1CCOCC1)[C@H](O)c1ccccc1
IC50 [1]: No inhibition
IC50 [4]: 23 µM

CCCCCCCCCC(=O)N[C@@H](CNC1CC(CO)C(O)C(O)C1O)[C@H](O)c1ccccc1 (stereo not given in full)
IC50 [2]: No inhibition
IC50 [3]: 5 µM

CCCCCCCCCC(=O)N[C@H](CN[C@@H]1C=C(CO)[C@@H](O)[C@H](O)[C@@H]1O)[C@H](O)c1ccccc1
IC50 [2]: No inhibition
IC50 [3]: 0.7 µM

CCCCCCCCCC(=O)N[C@H](CNC1CC(CO)C(O)C(O)C1O)[C@H](O)c1ccccc1 (stereo not given in full)
IC50 [2]: No inhibition
IC50 [3]: 10 µM

CCCCCCCCCC(=O)N[C@@H](CN[C@@H]1C=C(CO)[C@@H](O)[C@H](O)[C@@H]1O)[C@H](O)c1ccccc1
IC50 [2]: No inhibition
IC50 [3]: 0.5 µM
